Reference: PubChem BioAssay (NCI)
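Exposure lasted 48 hours, with cells grown in 96-well plates and compounds tested at five concentrations. At the TGI there is no net growth.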

What was measured:
Test in all cases: NCI-60 cell line screen, 48 h
786-0 renal = system: 786-0 renal
A498 renal = system: A498 renal
A549 NSCLC = system: A549 NSCLC
ACHN renal = system: ACHN renal
BT-549 breast = system: BT-549 breast
CAKI-1 renal = system: CAKI-1 renal
CCRF-CEM leukemia = system: CCRF-CEM leukemia
COLO 205 colon = system: COLO 205 colon
DU-145 prostate = system: DU-145 prostate
EKVX NSCLC = system: EKVX NSCLC
HCC-2998 colon = system: HCC-2998 colon
HCT-116 colon = system: HCT-116 colon
HCT-15 colon = system: HCT-15 colon
HL-60(TB) leukemia = system: HL-60(TB) leukemia
HOP-62 NSCLC = system: HOP-62 NSCLC
HOP-92 NSCLC = system: HOP-92 NSCLC
HS 578T breast = system: HS 578T breast
HT29 colon = system: HT29 colon
IGROV1 ovarian = system: IGROV1 ovarian
K-562 leukemia = system: K-562 leukemia
KM12 colon = system: KM12 colon
LOX IMVI melanoma = system: LOX IMVI melanoma
M14 melanoma = system: M14 melanoma
MALME-3M melanoma = system: MALME-3M melanoma
MCF7 breast = system: MCF7 breast
MDA-MB-231 breast = system: MDA-MB-231 breast
MDA-MB-435 = system: MDA-MB-435
MDA-N = system: MDA-N
MOLT-4 leukemia = system: MOLT-4 leukemia
NCI-H226 lung = system: NCI-H226 lung
NCI-H23 lung = system: NCI-H23 lung
NCI-H460 lung = system: NCI-H460 lung
NCI-H522 lung = system: NCI-H522 lung
NCI/ADR-RES ovarian = system: NCI/ADR-RES ovarian
OVCAR-3 ovarian = system: OVCAR-3 ovarian
OVCAR-4 ovarian = system: OVCAR-4 ovarian
OVCAR-5 ovarian = system: OVCAR-5 ovarian
OVCAR-8 ovarian = system: OVCAR-8 ovarian
PC-3 prostate = system: PC-3 prostate
RPMI-8226 leukemia = system: RPMI-8226 leukemia
SF-268 CNS = system: SF-268 CNS
SF-295 CNS = system: SF-295 CNS
SF-539 CNS = system: SF-539 CNS
SK-MEL-2 melanoma = system: SK-MEL-2 melanoma
SK-MEL-28 melanoma = system: SK-MEL-28 melanoma
SK-MEL-5 melanoma = system: SK-MEL-5 melanoma
SK-OV-3 ovarian = system: SK-OV-3 ovarian
SN12C renal = system: SN12C renal
SNB-19 CNS = system: SNB-19 CNS
SNB-75 CNS = system: SNB-75 CNS
SR leukemia = system: SR leukemia
SW-620 colon = system: SW-620 colon
T-47D breast = system: T-47D breast
TK-10 renal = system: TK-10 renal
U251 CNS = system: U251 CNS
UACC-257 melanoma = system: UACC-257 melanoma
UACC-62 melanoma = system: UACC-62 melanoma
UO-31 renal = system: UO-31 renal
RXF 393 renal = system: RXF 393 renal

O=C1CNN=C(CSc2nc3ccc(I)cc3c(=O)n2Cc2ccccc2)N1
TGI (786-0 renal): > 100 µM
TGI (A498 renal): 94.1 µM
TGI (A549 NSCLC): > 100 µM
TGI (ACHN renal): 31.6 µM
TGI (BT-549 breast): 86.3 µM
TGI (CAKI-1 renal): 34.3 µM
TGI (CCRF-CEM leukemia): 50.5 µM
TGI (COLO 205 colon): 28.4 µM
TGI (DU-145 prostate): 53.4 µM
TGI (EKVX NSCLC): > 100 µM
TGI (HCC-2998 colon): 81.7 µM
TGI (HCT-116 colon): 50.7 µM
TGI (HCT-15 colon): > 100 µM
TGI (HL-60(TB) leukemia): 4.03 µM
TGI (HOP-62 NSCLC): > 100 µM
TGI (HOP-92 NSCLC): 72 µM
TGI (HS 578T breast): > 100 µM
TGI (HT29 colon): > 100 µM
TGI (IGROV1 ovarian): 55.6 µM
TGI (K-562 leukemia): > 100 µM
TGI (KM12 colon): 93.2 µM
TGI (LOX IMVI melanoma): 33.4 µM
TGI (M14 melanoma): > 100 µM
TGI (MALME-3M melanoma): 54.2 µM
TGI (MCF7 breast): > 100 µM
TGI (MDA-MB-231 breast): 38.9 µM
TGI (MDA-MB-435): 97.6 µM
TGI (MDA-N): 87.2 µM
TGI (MOLT-4 leukemia): > 100 µM
TGI (NCI-H226 lung): 42.4 µM
TGI (NCI-H23 lung): > 100 µM
TGI (NCI-H460 lung): > 100 µM
TGI (NCI-H522 lung): 68.6 µM
TGI (NCI/ADR-RES ovarian): 77.1 µM
TGI (OVCAR-3 ovarian): 45.1 µM
TGI (OVCAR-4 ovarian): > 100 µM
TGI (OVCAR-5 ovarian): > 100 µM
TGI (OVCAR-8 ovarian): 94.7 µM
TGI (PC-3 prostate): 79.6 µM
TGI (RPMI-8226 leukemia): 91.9 µM
TGI (SF-268 CNS): 57.7 µM
TGI (SF-295 CNS): 59.7 µM
TGI (SF-539 CNS): 58.3 µM
TGI (SK-MEL-2 melanoma): 34.7 µM
TGI (SK-MEL-28 melanoma): 44.4 µM
TGI (SK-MEL-5 melanoma): 30.6 µM
TGI (SK-OV-3 ovarian): > 100 µM
TGI (SN12C renal): 34.3 µM
TGI (SNB-19 CNS): > 100 µM
TGI (SNB-75 CNS): 35.8 µM
TGI (SR leukemia): 92.3 µM
TGI (SW-620 colon): > 100 µM
TGI (T-47D breast): 43.5 µM
TGI (TK-10 renal): 78.3 µM
TGI (U251 CNS): 52 µM
TGI (UACC-257 melanoma): 70.7 µM
TGI (UACC-62 melanoma): 32.6 µM
TGI (UO-31 renal): 4.37 µM

Cc1cccc(-n2c(C)nc3ccc(NC(=S)Nc4ccccc4)cc3c2=O)c1
TGI (786-0 renal): > 100 µM
TGI (A498 renal): > 100 µM
TGI (ACHN renal): > 100 µM
TGI (BT-549 breast): > 100 µM
TGI (CAKI-1 renal): > 100 µM
TGI (COLO 205 colon): > 100 µM
TGI (DU-145 prostate): > 100 µM
TGI (EKVX NSCLC): > 100 µM
TGI (HCC-2998 colon): 78.1 µM
TGI (HCT-116 colon): > 100 µM
TGI (HCT-15 colon): > 100 µM
TGI (HL-60(TB) leukemia): > 100 µM
TGI (HOP-62 NSCLC): > 100 µM
TGI (HS 578T breast): > 100 µM
TGI (HT29 colon): > 100 µM
TGI (IGROV1 ovarian): > 100 µM
TGI (K-562 leukemia): > 100 µM
TGI (KM12 colon): > 100 µM
TGI (LOX IMVI melanoma): > 100 µM
TGI (MALME-3M melanoma): > 100 µM
TGI (MCF7 breast): > 100 µM
TGI (MDA-MB-231 breast): > 100 µM
TGI (MDA-MB-435): > 100 µM
TGI (MDA-N): > 100 µM
TGI (MOLT-4 leukemia): 71.9 µM
TGI (NCI-H226 lung): > 100 µM
TGI (NCI-H23 lung): > 100 µM
TGI (NCI-H460 lung): > 100 µM
TGI (NCI-H522 lung): > 100 µM
TGI (NCI/ADR-RES ovarian): > 100 µM
TGI (OVCAR-3 ovarian): > 100 µM
TGI (OVCAR-4 ovarian): > 100 µM
TGI (OVCAR-5 ovarian): > 100 µM
TGI (OVCAR-8 ovarian): > 100 µM
TGI (PC-3 prostate): > 100 µM
TGI (RPMI-8226 leukemia): > 100 µM
TGI (RXF 393 renal): > 100 µM
TGI (SF-268 CNS): > 100 µM
TGI (SF-295 CNS): > 100 µM
TGI (SK-MEL-2 melanoma): > 100 µM
TGI (SK-MEL-28 melanoma): > 100 µM
TGI (SK-MEL-5 melanoma): 57.1 µM
TGI (SN12C renal): > 100 µM
TGI (SNB-19 CNS): > 100 µM
TGI (SNB-75 CNS): > 100 µM
TGI (SR leukemia): > 100 µM
TGI (SW-620 colon): > 100 µM
TGI (T-47D breast): > 100 µM
TGI (TK-10 renal): > 100 µM
TGI (U251 CNS): > 100 µM
TGI (UACC-257 melanoma): > 100 µM
TGI (UACC-62 melanoma): > 100 µM
TGI (UO-31 renal): > 100 µM
